Assay results: patent US20040014721A1, “Method for using tethered bis(polyhydroxyphenyls) and O-alkyl derivatives thereof in treating inflammatory conditions of the central nervous system” (Oklahoma Medical Research Foundation, priority 2002, published 2004)

Tests used:
EOC-20 cells = system: EOC-20 cells
Description: (§1) Lower IC50 values indicate improved efficacy. FIG. 2 illustrates the principle of the measurement using NDGA as an example test agent. In order to determine viability, cell culture medium was replaced with phenol-free DMEM (Gibco) containing 20 μL/mL of MTT viability reagent (Promega). […] Control cells were taken to indicate 100% viability and intermediate values of MTT reduction were scaled to percentage of control. For each compound, an LD50 value was determined by extrapolation through sublethal concentrations. This value represents the concentration that reduced the MTT viability parameter by 50%.

LnCAP Production of PSA = test: LnCAP production of PSA (ELISA); type: cell-based; settings: Homo sapiens, LNCaP, 24 h
Description: LnCAP prostate cancer cells were be cultured according to established methods (Horoszewicz et al., 1983). These cells product prostate-specific antigen (PSA), a serine protease that predicts metastatic potential ([…] et al., 2000). […] Each drug was tested in triplicate at each concentration. Medium was removed and tested for PSA concentration using a commercially available enzyme-linked immunosorbent assay (ELISA). Viability was determined in the adherent cells using the MTT assay.

C57/B6 mice = test: 3-nitropropionic acid (3NP) striatal damage model, rotarod and balance beam; type: in vivo; settings: 2500 ppm in diet for one month, then 3NP 50 mg/kg i.p. every 12 h for 5 days
Description: Mice were then injected with 50 mg/kg 3NP intraperitoneally, every 12 h for 5 days. Motor performance was assessed daily by a rotarod task and balance was assessed by a balance wire task. In the rotarod task (Hensley et al. 2002), animals were placed on a bar rotating at 1 rpm and accelerating 10 rpm/minute until the animal fell from the bar. In the balance beam test, mice were placed on a 2-cm balance beam by suspending them by the tail, orienting them perpendicular to the beam, and placing the forepaws followed by hindpaws on the balance beam. Mice were left on the beam until they fell onto a soft cushion 75 cm below or until 5 min elapsed. The longest time of each pair of trials was used for statistical analysis.

[1] = system: prostaglandin E2 (PGE2) release in TNFα-stimulated EOC-20 cells; test: PGE2 release in TNFα-stimulated EOC-20 cells; type: cell-based, mouse; settings: submicromolar concentrations
Description: Prostaglandin E2, a product of the cyclooxygenation of arachidonic acid released from membrane phospholipids, plays major roles in regulating brain injury and inflammation. Although prostaglandin E2 has frequently been considered as a possible inducer of brain damage and degeneration, it may exert beneficial effects in the CNS. Indeed, in spite of its classic role as a pro-inflammatory molecule, several recent in vitro observations indicate that prostaglandin E2 can inhibit microglial activation.

[2] = system: TNFα-Stimulated NO2^− Production in EOC-20 Cells; test: TNFα-stimulated nitrite (NO2−) production in EOC-20 microglial cells, Griess assay; type: cell-based, mouse
Description: Cells were cultured in 24 well plates until confluent then treated with test agent, which was dissolved at 100× final concentration in dimethylsulfoxide (DMSO), or with vehicle only. Thirty minutes after treatment with test agent, cells were treated with 10 ng/mL recombinant mouse TNFα (Pharmingen, San Diego, Calif. USA). […] Each compound was tested at 100 μM, 20 μM, 4 μM, 0.8 μM and 0 μM in the presence of TNFα. Four wells of cells were used for each concentration of test agent.
as §1

SMILES: C[C@H](Cc1ccc(O)c(O)c1)[C@@H](C)Cc1ccc(O)c(O)c1 [NDGA, 1,4-bis (3,4-Dihydroxyphenyl)-2,3-dimethylbutane]
- toxicity at 100 μM (EOC-20 cells): no toxicity
- IC50 (LnCAP Production of PSA): 15 µM
- balance test (C57/B6 mice): significantly improved functional ability
- rotarod test (C57/B6 mice): significantly improved functional ability
- inhibition of prostaglandin E2 (PGE2) release [1]: effective at submicromolar concentrations
- inhibition of prostaglandin E2 (PGE2) release ([1]; listed as NGDA): effectively inhibits prostaglandin E2 (PGE2)
- NO2− suppression at 800 nM ([2]; 800 nM): Significant NO2^− suppression
- IC50 ([2]; Mus musculus, read-out: IC50): 3 to 5 µM
- potency relative to minocycline ([2]; fold more potent than minocycline): approximately 16 times
